Results reported in PubChem BioAssay (NCI).
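The compound was tested at five concentrations on cells cultured in 96-well plates, with a 48-hour exposure period. At the GI50, growth is halved. TGI denotes the concentration required for complete inhibition of growth.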

How the values were obtained:
Assay in all cases: NCI-60 cell line screen, 48 h
A549 NSCLC = system: A549 NSCLC
CCRF-CEM leukemia = system: CCRF-CEM leukemia
COLO 205 colon = system: COLO 205 colon
EKVX NSCLC = system: EKVX NSCLC
MALME-3M melanoma = system: MALME-3M melanoma
NCI-H226 lung = system: NCI-H226 lung
NCI-H23 lung = system: NCI-H23 lung
SW-620 colon = system: SW-620 colon
MCF7 breast = system: MCF7 breast
BT-549 breast = system: BT-549 breast

SMILES: CCNC(=O)NNc1ncnc2c1c(-c1ccc(Cl)cc1)cn2-c1ccc(C)cc1
- TGI (A549 NSCLC): 37.2 µM
- TGI (CCRF-CEM leukemia): 43.1 µM
- TGI (COLO 205 colon): 29.9 µM
- TGI (EKVX NSCLC): 65.4 µM
- TGI (MALME-3M melanoma): 35.5 µM
- TGI (NCI-H226 lung): 37.9 µM
- TGI (NCI-H23 lung): 44.8 µM
- TGI (SW-620 colon): 45 µM

SMILES: Nc1ncnc2c1sc(=S)n2-c1ccccc1
- TGI (A549 NSCLC): > 100 µM
- TGI (CCRF-CEM leukemia): > 100 µM
- TGI (COLO 205 colon): > 100 µM
- TGI (EKVX NSCLC): > 100 µM
- TGI (MALME-3M melanoma): > 100 µM
- TGI (NCI-H226 lung): > 100 µM
- TGI (NCI-H23 lung): > 100 µM
- TGI (SW-620 colon): > 100 µM

SMILES: CCCCCCCCCC(O)CC(=O)c1c(O)cccc1O (stereo unspecified)
- TGI (A549 NSCLC): 55.1 µM
- TGI (CCRF-CEM leukemia): > 100 µM
- TGI (COLO 205 colon): 91.7 µM
- TGI (EKVX NSCLC): 45.5 µM
- TGI (MALME-3M melanoma): 32.3 µM
- TGI (MCF7 breast): 50.3 µM
- TGI (NCI-H226 lung): 34.9 µM
- TGI (NCI-H23 lung): 43.7 µM
- TGI (SW-620 colon): > 100 µM

SMILES: CC(=O)Oc1c2c(c(OC(C)=O)c3c1n(C(C)=O)c1ccccc1n3C(C)=O)n(C(C)=O)c1ccccc1n2C(C)=O
- TGI (A549 NSCLC): 24.2 µM
- TGI (CCRF-CEM leukemia): 15.6 µM
- TGI (MALME-3M melanoma): 7.56 µM
- TGI (NCI-H23 lung): 25.7 µM
- TGI (SW-620 colon): 5.67 µM

SMILES: C=CCOC(=O)c1c(C)n([O-])c2cc(Cl)c(Cl)cc2[n+]1=O
- TGI (A549 NSCLC): 87.7 µM
- TGI (BT-549 breast): 75.3 µM
- TGI (CCRF-CEM leukemia): 45.9 µM
- TGI (COLO 205 colon): 32.6 µM
- TGI (EKVX NSCLC): 41.1 µM
- TGI (MALME-3M melanoma): 70.9 µM
- TGI (MCF7 breast): 60.8 µM
- TGI (NCI-H226 lung): 38.9 µM
- TGI (NCI-H23 lung): 30.3 µM

SMILES: C=CC(C)(C)C1(CC(OC)OC)C(=O)N(C)c2ccccc21 (stereo unspecified)
- TGI (A549 NSCLC): > 25 µM
- TGI (CCRF-CEM leukemia): > 25 µM
- TGI (COLO 205 colon): > 25 µM
- TGI (EKVX NSCLC): > 25 µM
- TGI (MCF7 breast): > 25 µM
- TGI (NCI-H226 lung): > 25 µM
- TGI (NCI-H23 lung): > 25 µM
- TGI (SW-620 colon): > 25 µM

SMILES: Fc1ccc2[nH]cc(-c3nc(-c4c[nH]c5ccncc45)cs3)c2c1
- GI50 (BT-549 breast): 1650 nM
- TGI (BT-549 breast): 3.07 µM
- GI50 (CCRF-CEM leukemia): 1890 nM
- TGI (CCRF-CEM leukemia): 4.65 µM

SMILES: c1ccc2[nH]c3c(N=NC4=NCCN4)c4ccccc4c-3nc2c1
- TGI (A549 NSCLC): 16.8 µM
- TGI (BT-549 breast): 41.9 µM
- TGI (CCRF-CEM leukemia): > 100 µM
- TGI (EKVX NSCLC): 33.3 µM
- TGI (MALME-3M melanoma): 24.1 µM
- TGI (MCF7 breast): 11.4 µM
- TGI (NCI-H226 lung): 23.7 µM
- TGI (NCI-H23 lung): 23.3 µM
- TGI (SW-620 colon): 13.6 µM

SMILES: CC(=O)OC12CC(C(F)(F)F)(C(F)(F)F)OC1(OC(C)=O)CC(C(F)(F)F)(C(F)(F)F)O2 (stereo unspecified)
- TGI (A549 NSCLC): 5.6 µM
- TGI (BT-549 breast): > 100 µM
- TGI (CCRF-CEM leukemia): > 100 µM
- TGI (COLO 205 colon): 25.6 µM
- TGI (MALME-3M melanoma): > 100 µM
- TGI (MCF7 breast): 3.73 µM
- TGI (NCI-H226 lung): > 100 µM
- TGI (NCI-H23 lung): 8.71 µM
- TGI (SW-620 colon): > 100 µM

SMILES: Cc1c(OCCCOc2ccc3c(=O)cc(-c4ccccc4)oc3c2C)ccc2c(=O)cc(-c3ccccc3)oc12
- TGI (A549 NSCLC): > 100 µM
- TGI (CCRF-CEM leukemia): > 100 µM
- TGI (EKVX NSCLC): > 100 µM
- TGI (MALME-3M melanoma): > 100 µM
- TGI (NCI-H23 lung): > 100 µM
- TGI (SW-620 colon): > 100 µM

SMILES: CCCCOc1c(C(=O)O)cc(Br)cc1C(=O)O
- TGI (A549 NSCLC): > 100 µM
- TGI (BT-549 breast): > 100 µM
- TGI (COLO 205 colon): > 100 µM
- TGI (EKVX NSCLC): > 100 µM
- TGI (MALME-3M melanoma): > 100 µM
- TGI (MCF7 breast): > 100 µM
- TGI (NCI-H226 lung): > 100 µM
- TGI (NCI-H23 lung): > 100 µM
- TGI (SW-620 colon): > 100 µM

SMILES: C[N+](C)=c1ccc2nc3c(ccc4ccccc43)oc-2c1
- TGI (A549 NSCLC): 37.1 µM
- TGI (CCRF-CEM leukemia): 8.53 µM
- TGI (COLO 205 colon): > 57.9 µM
- TGI (EKVX NSCLC): 37.3 µM
- TGI (MALME-3M melanoma): 26.1 µM
- TGI (NCI-H226 lung): 33.5 µM
- TGI (NCI-H23 lung): 27.2 µM
- TGI (SW-620 colon): 10.5 µM

SMILES: CO[C@H]1CC[C@]2(C)C3=CC[C@@]4(C)C(CC[C@@H]4C(C)CC[C@@H](C)C(C)C)C(=CCC2C1)O3 (stereo partly specified)
- TGI (A549 NSCLC): > 25 µM
- TGI (CCRF-CEM leukemia): > 25 µM
- TGI (COLO 205 colon): > 25 µM
- TGI (EKVX NSCLC): > 25 µM
- TGI (MALME-3M melanoma): > 25 µM
- TGI (NCI-H226 lung): > 25 µM
- TGI (NCI-H23 lung): > 7.9 µM
- TGI (SW-620 colon): > 25 µM

SMILES: N/C(=N\S(=O)(=O)c1ccc(-c2ccccn2)s1)Nc1ccc(Cl)cc1
- TGI (A549 NSCLC): 47.2 µM
- TGI (BT-549 breast): 32.6 µM
- TGI (COLO 205 colon): 35.9 µM
- TGI (EKVX NSCLC): 26 µM
- TGI (MALME-3M melanoma): 33.4 µM
- TGI (MCF7 breast): 34.4 µM
- TGI (NCI-H226 lung): 35.8 µM
- TGI (NCI-H23 lung): 33.2 µM
- TGI (SW-620 colon): 45.1 µM

SMILES: COC(=O)[C@@H]1[C@H](O)CCC2=C(CC(=O)c3ccoc3)[C@H](C)CC[C@]21C
- TGI (A549 NSCLC): > 50 µM
- TGI (BT-549 breast): > 50 µM
- TGI (COLO 205 colon): > 50 µM
- TGI (EKVX NSCLC): > 50 µM
- TGI (MALME-3M melanoma): > 50 µM
- TGI (MCF7 breast): > 50 µM
- TGI (NCI-H226 lung): > 50 µM
- TGI (NCI-H23 lung): > 50 µM
- TGI (SW-620 colon): > 50 µM

SMILES: CC(C(=O)NCCNC(=O)CCC(=O)N(C)O)C(=O)NCCNC(=O)CCC(=O)N(C)O
- TGI (A549 NSCLC): > 100 µM
- TGI (CCRF-CEM leukemia): > 100 µM
- TGI (COLO 205 colon): > 100 µM
- TGI (EKVX NSCLC): > 100 µM
- TGI (MALME-3M melanoma): > 100 µM
- TGI (MCF7 breast): > 100 µM
- TGI (NCI-H226 lung): > 100 µM
- TGI (NCI-H23 lung): > 100 µM
- TGI (SW-620 colon): > 100 µM

SMILES: Brc1c2nc3ccccc3nc2n2ccc3ccccc3c12
- TGI (A549 NSCLC): > 100 µM
- TGI (CCRF-CEM leukemia): > 100 µM
- TGI (COLO 205 colon): > 100 µM
- TGI (EKVX NSCLC): > 100 µM
- TGI (MALME-3M melanoma): > 100 µM
- TGI (NCI-H23 lung): > 100 µM
- TGI (SW-620 colon): > 100 µM

SMILES: C[N+](C)(C)CCOC(=O)/C=C/c1cnc[nH]1
- TGI (A549 NSCLC): > 500 µM
- TGI (CCRF-CEM leukemia): > 500 µM
- TGI (COLO 205 colon): > 500 µM
- TGI (EKVX NSCLC): > 500 µM
- TGI (MALME-3M melanoma): > 500 µM
- TGI (MCF7 breast): > 500 µM
- TGI (NCI-H226 lung): > 500 µM
- TGI (NCI-H23 lung): > 500 µM
- TGI (SW-620 colon): > 500 µM

SMILES: CC(C)(C)c1ccc(O)c(C(c2ccc([N+](=O)[O-])cc2)c2cc(C(C)(C)C)ccc2O)c1
- TGI (A549 NSCLC): 3.77 µM
- TGI (CCRF-CEM leukemia): 7.53 µM
- TGI (COLO 205 colon): 5.8 µM
- TGI (EKVX NSCLC): 3.92 µM
- TGI (MCF7 breast): 3.83 µM
- TGI (NCI-H226 lung): 3.51 µM
- TGI (NCI-H23 lung): 4.23 µM
- TGI (SW-620 colon): 4.71 µM

SMILES: Nc1nc(Nc2ccc(Cl)cc2)sc1C(=O)c1c[nH]c2ccccc12
- TGI (A549 NSCLC): 29.5 µM
- TGI (BT-549 breast): 34 µM
- TGI (CCRF-CEM leukemia): > 100 µM
- TGI (COLO 205 colon): 18 µM
- TGI (MALME-3M melanoma): 31.2 µM
- TGI (MCF7 breast): 31 µM
- TGI (NCI-H226 lung): 46.1 µM
- TGI (NCI-H23 lung): 27.8 µM
- TGI (SW-620 colon): > 100 µM

SMILES: C=C1C2C[C@@H]3OC4CC5O[C@]6(CC5OC4C(C)C3OC(=O)CC3CC[C@@H]4OC5C7OC8C[C@](CCC9CC(=C)[C@H](CCC(C[C@H]1C)O2)O9)(OC7C4O3)O[C@@H]85)C[C@@H]1O[C@@]2(CC(C)[C@@H]3OC(CC(=O)CCO)C(O)C[C@@H]3O2)CC(C)[C@@H]1O6 (stereo partly specified)
- TGI (A549 NSCLC): 1.28 µM
- TGI (CCRF-CEM leukemia): 1.8 µM
- TGI (COLO 205 colon): < 0.001 µM
- TGI (MALME-3M melanoma): 0.189 µM
- TGI (NCI-H226 lung): < 0.001 µM
- TGI (NCI-H23 lung): < 0.001 µM
- TGI (SW-620 colon): 1.32 µM

SMILES: Cc1ccc(S(=O)(=O)NC(=O)NCCc2ccc(O)c(O)c2)cc1
- TGI (A549 NSCLC): > 100 µM
- TGI (COLO 205 colon): > 100 µM
- TGI (EKVX NSCLC): > 100 µM
- TGI (MALME-3M melanoma): > 100 µM
- TGI (MCF7 breast): > 100 µM
- TGI (NCI-H226 lung): > 100 µM
- TGI (NCI-H23 lung): > 100 µM
- TGI (SW-620 colon): > 100 µM

SMILES: Cc1ccc(S(=O)(=O)/N=C2/N(C)CCCS2(=O)=O)cc1
- TGI (A549 NSCLC): > 100 µM
- TGI (BT-549 breast): > 100 µM
- TGI (CCRF-CEM leukemia): > 100 µM
- TGI (COLO 205 colon): > 100 µM
- TGI (EKVX NSCLC): > 100 µM
- TGI (MCF7 breast): > 100 µM
- TGI (NCI-H226 lung): > 100 µM
- TGI (NCI-H23 lung): > 100 µM
- TGI (SW-620 colon): > 100 µM

SMILES: Cc1c(-c2coc(-c3ccccc3)n2)c(=O)n(-c2ccccc2)n1C
- TGI (A549 NSCLC): > 100 µM
- TGI (CCRF-CEM leukemia): > 100 µM
- TGI (COLO 205 colon): > 100 µM
- TGI (MALME-3M melanoma): > 100 µM
- TGI (NCI-H226 lung): > 100 µM
- TGI (NCI-H23 lung): > 100 µM
- TGI (SW-620 colon): > 100 µM
